16 compounds from US20240215576A1, “HEAT-RESISTANT MOLD GROWTH INHIBITOR, FOOD AND DRINK IN WHICH GROWTH OF HEAT-RESISTANT MOLD IS INHIBITED, AND METHOD FOR INHIBITING GROWTH OF HEAT-RESISTANT MOLD” (NIPPON SHINYAKU CO., LTD., priority 2021, published 2024) can be followed below.

The test system of test [1] is N. primulina. Put plainly: Growth of N. primulina in Trypticase soy broth medium stored 7 days at 25° C. The class given is cell-based, Neosartorya primulina. The conditions noted are these: for Growth of N. primulina after lapse of 7 days under storage at 25° C.: concentration 1000 ppm; for growth inhibition effect against N. primulina: 1000 ppm. On the procedure:
(§1) Diethyl fumarate and 2-decenoic acid were prepared for use in Examples. In addition, the following components reported to have a growth inhibition effect against normal mold (non-heat-resistant mold) were prepared for use in Comparative Examples: palmitic acid, trans-anethole, benzyl alcohol, cinnamic acid, hinokitiol, salicylic acid, hexanal, 2-mercapto benzothiazole, p-cymene, 1,8-cineole, α-pinene, estragole, 4-hydroxy-3,5-dimethoxybenzoic acid, and linalyl acetate. Then, each component was added to a medium of Trypticase soy broth such that the concentration of each component was as shown in Table 3 below.
(§2) These media were stored for 7 days under an atmosphere at 25° C. […] In Table, those showing the growth are represented by “+,” and those showing no growth are represented by “−.”

Test [2] relates to B. fulva. Put plainly: Growth of B. fulva in Trypticase soy broth medium stored 7 days at 25° C. The test is classed as cell-based, Byssochlamys fulva. The following applies: for Growth of B. fulva after lapse of 7 days under storage at 25° C.: concentration 1000 ppm; for growth inhibition effect against B. fulva: 1000 ppm. On the procedure: as §1, §2
Test [3] has as its system B. fulva. Put plainly: Growth of B. fulva in tomato juice stored at 25° C. The test is classed as cell-based, Byssochlamys fulva. The conditions noted are these: for generation of B. fulva after the lapse of 14 days: 25° C., high concentration of the active component (270 ppm); for Growth of B. fulva, 3 days / Growth of B. fulva, 5 days / Growth of B. fulva, 7 days / Growth of B. fulva, 10 days / Growth of B. fulva, 14 days: storage at 25° C. On the procedure: Diethyl fumarate or 2-decenoic acid was added to tomato juice (100% pure, salt-free) such that the concentration of the component was as shown in Table 1 below. […] In Table 1, those showing the growth of B. fulva are represented by “+,” and those showing no growth are represented by “−.”

The test system of test [4] is N. primulina. The test can be described thus: Growth of N. primulina in tomato juice stored at 25° C. More on the design: key to Growth of N. primulina, 5 days / Growth of N. primulina, 7 days / Growth of N. primulina, 10 days / Growth of N. primulina, 14 days: those showing the growth of N. primulina are represented by “+,”; those showing no growth are represented by “−.”. The following applies: for growth inhibition effect against N. primulina after the lapse of 14 days: high concentration of the active component (270 ppm); for Growth of N. primulina, 3 days / Growth of N. primulina, 5 days / Growth of N. primulina, 7 days / Growth of N. primulina, 10 days / Growth of N. primulina, 14 days: storage at 25° C. The class given is cell-based, Neosartorya primulina. The protocol:
Diethyl fumarate or 2-decenoic acid was added to tomato juice (100% pure, salt-free) such that the concentration of the component was as shown in Table 2 below. […] In Table 2, those showing the growth of N. primulina are represented by “+,” and those showing no growth are represented by “−.”

Counter-ions that a name gives are not always drawn.

For `CC12CCC(CC1)C(C)(C)O2` [1,8-Cineole], in the test on N. primulina [1], the “Growth of N. primulina after lapse of 7 days under storage at 25° C.” value (“Growth of N. primulina after lapse … at 25° C.” below) was “+”. In addition, the “Growth of B. fulva after lapse of 7 days under storage at 25° C.” value (shortened to “Growth of B. fulva after lapse of 7 days”) in the test with B. fulva [2] is listed as “+”.

Turning to `CCCCCCC/C=C/C(=O)O` [2-Decenoic acid, (E)-dec-2-enoic acid], in the test with N. primulina [1], the “growth inhibition effect against N. primulina” value was “exhibit the growth inhibition effect” and the “Growth of N. primulina after lapse … at 25° C.” value was “−”. Moreover, the “generation of B. fulva after the lapse of 14 days” value with B. fulva [3] was “no generation”. Also, in the test with B. fulva [3] (70 ppm), the “Growth of B. fulva, 3 days” value was “−”; the “Growth of B. fulva, 5 days” value is listed as “−”; the “Growth of B. fulva, 7 days” value is listed as “−”; the “Growth of B. fulva, 10 days” value was “+”. Besides, in the test on B. fulva [3] (70 ppm), the “Growth of B. fulva, 14 days” value is recorded as “+”. Besides, in the test with B. fulva [3] (270 ppm), the “Growth of B. fulva, 3 days” value is recorded as “−”; the “Growth of B. fulva, 5 days” value is recorded as “−”; the “Growth of B. fulva, 7 days” value was “−”; the “Growth of B. fulva, 10 days” value is recorded as “−”. Also, the “Growth of B. fulva, 14 days” value in the test with B. fulva [3] (270 ppm) is “−”. For the same compound, in the test with B. fulva [2], the “growth inhibition effect against B. fulva” value is listed as “exhibit the growth inhibition effect” and the “Growth of B. fulva after lapse of 7 days” value is given as “−”. Further, the “growth inhibition effect against N. primulina after the lapse of 14 days” value in the test on N. primulina [4] (25° C.) is reported as “the effect is maintained”. Also, in the test with N. primulina [4] (70 ppm), the “Growth of N. primulina, 3 days” value is “−”; the “Growth of N. primulina, 5 days” value is listed as “+”; the “Growth of N. primulina, 7 days” value is “+”; the “Growth of N. primulina, 14 days” value is “+”. For the same compound, in the test on N. primulina [4] (70 ppm, 10 days), the “Growth of N. primulina, 10 days” value was “+”. In the test with N. primulina [4] (270 ppm), the “Growth of N. primulina, 3 days” value was “−”; the “Growth of N. primulina, 5 days” value is “−”; the “Growth of N. primulina, 7 days” value is on record as “−”; the “Growth of N. primulina, 14 days” value is “−”. The “Growth of N. primulina, 10 days” value with N. primulina [4] (270 ppm, 10 days) is “−”.

Turning to `Sc1nc2ccccc2s1` [2-Mercapto benzothiazole], the “Growth of N. primulina after lapse … at 25° C.” value in the test with N. primulina [1] is listed as “+”. For the same compound, in the test with B. fulva [2], the “Growth of B. fulva after lapse of 7 days” value is “+”.

With `COc1cc(C(=O)O)cc(OC)c1O` [4-Hydroxy-3,5-dimethoxybenzoic acid], the “Growth of N. primulina after lapse … at 25° C.” value with N. primulina [1] is “+”. Also, the “Growth of B. fulva after lapse of 7 days” value with B. fulva [2] is “+”.

In the case of `OCc1ccccc1` [Benzyl alcohol], in the test with N. primulina [1], the “Growth of N. primulina after lapse … at 25° C.” value is “+”. Moreover, the “Growth of B. fulva after lapse of 7 days” value in the test with B. fulva [2] is reported as “+”.

Regarding `O=C(O)C=Cc1ccccc1` [Cinnamic acid], in the test with N. primulina [1], the “Growth of N. primulina after lapse … at 25° C.” value was “+”. In the test with B. fulva [2], the “Growth of B. fulva after lapse of 7 days” value is recorded as “+”.

In the case of `CCOC(=O)/C=C/C(=O)OCC` [Diethyl fumarate, diethyl (E)-but-2-enedioate], in the test with N. primulina [1], the “growth inhibition effect against N. primulina” value was “exhibit the growth inhibition effect” and the “Growth of N. primulina after lapse … at 25° C.” value was “−”. In addition, the “generation of B. fulva after the lapse of 14 days” value in the test with B. fulva [3] is “no generation”. In the test with B. fulva [3] (70 ppm), the “Growth of B. fulva, 3 days” value is recorded as “−”; the “Growth of B. fulva, 5 days” value is “−”; the “Growth of B. fulva, 7 days” value is “−”; the “Growth of B. fulva, 10 days” value was “+”. The “Growth of B. fulva, 14 days” value in the test with B. fulva [3] (70 ppm) is “+”. Besides, in the test on B. fulva [3] (270 ppm), the “Growth of B. fulva, 3 days” value was “−”; the “Growth of B. fulva, 5 days” value is “−”; the “Growth of B. fulva, 7 days” value is recorded as “−”; the “Growth of B. fulva, 10 days” value was “−”. In addition, in the test on B. fulva [3] (270 ppm), the “Growth of B. fulva, 14 days” value is on record as “−”. In addition, in the test with B. fulva [2], the “growth inhibition effect against B. fulva” value was “exhibit the growth inhibition effect” and the “Growth of B. fulva after lapse of 7 days” value is recorded as “−”. The “generation of N. primulina after the lapse of 10 days” value with N. primulina [4] (25° C., 10 days) is “no generation”. Also, the “growth inhibition effect against N. primulina after the lapse of 14 days” value with N. primulina [4] (25° C.) is reported as “the effect is maintained”. In the test on N. primulina [4] (70 ppm), the “Growth of N. primulina, 3 days” value is given as “−”; the “Growth of N. primulina, 5 days” value is “−”; the “Growth of N. primulina, 7 days” value was “−”; the “Growth of N. primulina, 14 days” value was “+”. The “Growth of N. primulina, 10 days” value with N. primulina [4] (70 ppm, 10 days) is listed as “−”. Further, in the test with N. primulina [4] (270 ppm), the “Growth of N. primulina, 3 days” value was “−”; the “Growth of N. primulina, 5 days” value is listed as “−”; the “Growth of N. primulina, 7 days” value was “−”; the “Growth of N. primulina, 14 days” value is “−”. Further, the “Growth of N. primulina, 10 days” value with N. primulina [4] (270 ppm, 10 days) was “−”.

In the case of `C=CCc1ccc(OC)cc1` [Estragole], the “Growth of N. primulina after lapse … at 25° C.” value with N. primulina [1] is given as “+”. Moreover, the “Growth of B. fulva after lapse of 7 days” value in the test with B. fulva [2] is reported as “+”.

As to `CCCCCC=O` [Hexanal], the “Growth of N. primulina after lapse … at 25° C.” value in the test on N. primulina [1] was “+”. Besides, in the test with B. fulva [2], the “Growth of B. fulva after lapse of 7 days” value is on record as “+”.

Turning to `CC(C)c1cccc(=O)c(O)c1` [Hinokitiol], the “Growth of N. primulina after lapse … at 25° C.” value with N. primulina [1] is given as “+”. In addition, in the test with B. fulva [2], the “Growth of B. fulva after lapse of 7 days” value is listed as “+”.

With `C=CC(C)(CCC=C(C)C)OC(C)=O` (stereo not drawn) [Linalyl acetate], the “Growth of N. primulina after lapse … at 25° C.” value in the test on N. primulina [1] is reported as “+”. The “Growth of B. fulva after lapse of 7 days” value in the test with B. fulva [2] is given as “+”.

Take `CCCCCCCCCCCCCCCC(=O)O` [Palmitic acid]: the “Growth of N. primulina after lapse … at 25° C.” value with N. primulina [1] is “+”. For the same compound, the “Growth of B. fulva after lapse of 7 days” value with B. fulva [2] is on record as “+”.

For `O=C(O)c1ccccc1O` [Salicylic acid], in the test with N. primulina [1], the “Growth of N. primulina after lapse … at 25° C.” value is on record as “+”. Also, the “Growth of B. fulva after lapse of 7 days” value in the test on B. fulva [2] is “+”.

For `C/C=C/c1ccc(OC)cc1` [Trans-anethole], in the test with N. primulina [1], the “Growth of N. primulina after lapse … at 25° C.” value is “+”. In addition, the “Growth of B. fulva after lapse of 7 days” value with B. fulva [2] was “+”.

As to `Cc1ccc(C(C)C)cc1` [p-Cymene], the “Growth of N. primulina after lapse … at 25° C.” value in the test with N. primulina [1] is “+”. Besides, in the test with B. fulva [2], the “Growth of B. fulva after lapse of 7 days” value is reported as “+”.

For the compound `CC1=CCC2CC1C2(C)C` (stereo not drawn) [α-Pinene], the “Growth of N. primulina after lapse … at 25° C.” value in the test with N. primulina [1] is given as “+”. For the same compound, the “Growth of B. fulva after lapse of 7 days” value in the test on B. fulva [2] was “+”.
